According to ChEMBL document CHEMBL1132873, “Synthesis and structural analysis of the active enantiomer of famoxadone, a potent inhibitor of cytochrome bc1” (Bioorg Med Chem Lett, 2000):

Species: Rattus norvegicus
Assay: Compound was tested for inhibition of mitochondrial electron transport
Format: functional

CN(c1ccccc1)N1C(=O)O[C@@](C)(c2ccc(Oc3ccccc3)cc2)C1=O
IC50: 35 nM

C[C@@]1(c2ccc(Oc3ccccc3)cc2)OC(=O)N(Nc2ccccc2)C1=O [FAMOXADONE]
IC50: 11 nM
